These results are taken from ChEMBL document CHEMBL1155961, “Novel 4-aryl-pyrido[1,2-c]pyrimidines with dual SSRI and 5-HT1A activity: part 2” (Eur J Med Chem, 2009).

The test system of assay [1] is Mus musculus. Nature of the assay: Antidepressant activity in Swiss albino mouse assessed as reduction of immobility time at 1 mg/kg, sc administered 30 mins before test measured 6 mins test session after 2 mins habituation period by forced swimming test. It counts as functional. Also noted: scale not given: the % may be the effect or the level left. The note with it: route subcutaneous.

In assay [2] the test system is Mus musculus. The assay can be described thus: Antidepressant activity in Swiss albino mouse assessed as reduction of immobility time at 2 mg/kg, sc administered 30 mins before test measured 6 mins test session after 2 mins habituation period by forced swimming test. Also noted: scale not given: the % may be the effect or the level left. The note with it: route subcutaneous. It counts as functional.

Assay [3] has as its system Mus musculus. The assay can be described thus: Effect on hypothermia in Swiss albino mouse assessed as change in rectal body temperature at 10 mg/kg, ip after 30 mins by inducible hypothermia test. It counts as functional, organism-based. On the set-up: dose 10 mg/kg.
For assay [4], the system named is Mus musculus. The assay can be described thus: Antidepressant activity in Swiss albino mouse assessed as reduction of immobility time at 20 mg/kg, ip administered 30 mins before test measured 6 mins test session after 2 mins habituation period by forced swimming test. Type of assay: functional. On the set-up: scale not given: the % may be the effect or the level left. The settings on record: route intraperitoneal.

Assay [5] relates to Mus musculus. Nature of the assay: Effect on hypothermia in Swiss albino mouse assessed as change in rectal body temperature at 20 mg/kg, ip after 120 mins by inducible hypothermia test. Type of assay: functional, organism-based. Also noted: dose 20 mg/kg.
Assay [6] relates to Mus musculus. The assay can be described thus: Effect on hypothermia in Swiss albino mouse assessed as change in rectal body temperature at 10 mg/kg, ip after 60 mins by inducible hypothermia test. It counts as functional, organism-based. On the set-up: dose 10 mg/kg.
The subject of assay [7] is Mus musculus. The assay can be described thus: Antidepressant activity in Swiss albino mouse assessed as reduction of immobility time at 10 mg/kg, ip administered 30 mins before test measured 6 mins test session after 2 mins habituation period by forced swimming test. It counts as functional.
Assay [8] relates to Mus musculus. Nature of the assay: Effect on hypothermia in Swiss albino mouse assessed as change in rectal body temperature at 5 mg/kg, ip after 60 mins by inducible hypothermia test. It counts as functional, organism-based. On the set-up: dose 5 mg/kg.
Assay [9] deals with Mus musculus. The assay can be described thus: Effect on hypothermia in Swiss albino mouse assessed as change in rectal body temperature at 10 mg/kg, ip after 120 mins by inducible hypothermia test. Type of assay: functional, organism-based. On the set-up: dose 10 mg/kg.
In assay [10] the target is Sodium-dependent serotonin transporter (Rattus norvegicus, UniProt P31652). The assay can be described thus: Displacement of [3H]citalopram from SERT in rat cerebral cortex by liquid scintillation counting. It counts as tissue-based.
Sodium-dependent serotonin transporter, sequence (P31652 whole entry): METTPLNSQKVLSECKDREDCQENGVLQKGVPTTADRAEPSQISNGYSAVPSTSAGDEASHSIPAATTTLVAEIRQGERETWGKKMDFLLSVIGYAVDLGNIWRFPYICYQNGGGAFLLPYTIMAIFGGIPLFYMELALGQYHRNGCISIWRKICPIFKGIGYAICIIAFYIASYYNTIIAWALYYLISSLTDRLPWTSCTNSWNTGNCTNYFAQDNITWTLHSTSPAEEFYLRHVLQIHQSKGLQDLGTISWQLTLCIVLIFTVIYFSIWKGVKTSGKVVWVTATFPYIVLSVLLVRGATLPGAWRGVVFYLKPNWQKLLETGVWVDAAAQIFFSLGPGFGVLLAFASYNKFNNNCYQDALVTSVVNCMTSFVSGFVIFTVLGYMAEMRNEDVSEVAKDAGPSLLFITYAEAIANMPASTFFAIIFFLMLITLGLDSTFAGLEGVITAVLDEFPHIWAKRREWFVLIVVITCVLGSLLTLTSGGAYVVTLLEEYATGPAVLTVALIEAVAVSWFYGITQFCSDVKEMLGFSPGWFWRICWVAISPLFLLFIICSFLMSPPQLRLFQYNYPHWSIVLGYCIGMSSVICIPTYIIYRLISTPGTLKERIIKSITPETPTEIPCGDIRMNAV
Assay [11] has as its system Mus musculus. Nature of the assay: Effect on hypothermia in Swiss albino mouse assessed as change in rectal body temperature at 10 mg/kg, ip after 90 mins by inducible hypothermia test. It counts as functional, organism-based. On the set-up: dose 10 mg/kg.
Assay [12] has as its system Mus musculus. The assay can be described thus: Effect on hypothermia in Swiss albino mouse assessed as change in rectal body temperature at 20 mg/kg, ip after 60 mins by inducible hypothermia test. Type of assay: functional, organism-based. On the set-up: dose 20 mg/kg.
Assay [13] has as its system Mus musculus. Nature of the assay: Effect on hypothermia in Swiss albino mouse assessed as change in rectal body temperature at 20 mg/kg, ip after 30 mins by inducible hypothermia test. Also noted: dose 20 mg/kg. It counts as functional, organism-based.
The test system of assay [14] is Mus musculus. Nature of the assay: Effect on hypothermia in Swiss albino mouse assessed as change in rectal body temperature at 20 mg/kg, ip after 90 mins by inducible hypothermia test. It counts as functional, organism-based. On the set-up: dose 20 mg/kg.
The test system of assay [15] is Mus musculus. The assay can be described thus: Effect on hypothermia in Swiss albino mouse assessed as change in rectal body temperature at 5 mg/kg, ip after 90 mins by inducible hypothermia test. Type of assay: functional, organism-based. Also noted: dose 5 mg/kg.
The test system of assay [16] is Mus musculus. Nature of the assay: Effect on spontaneous locomotor activity in Swiss albino mouse assessed as number of light-beam crossings in actiometers pretreated for 30 mins at 20 mg/kg, ip measured during 30 mins post drug dose. Type of assay: functional. The note with it: route intraperitoneal.
The test system of assay [17] is Mus musculus. Nature of the assay: Effect on hypothermia in Swiss albino mouse assessed as change in rectal body temperature at 5 mg/kg, ip after 30 mins by inducible hypothermia test. Type of assay: functional, organism-based. On the set-up: dose 5 mg/kg.
In assay [18] the test system is Mus musculus. Nature of the assay: Effect on hypothermia in Swiss albino mouse assessed as change in rectal body temperature at 20 mg/kg, ip dosed 15 mins after 0.1 mg/kg, sc WAY 100635 challenge measured after 30 mins by inducible hypothermia test. Type of assay: functional, organism-based.
Assay [19] concerns Mus musculus. Nature of the assay: Effect on hypothermia in Swiss albino mouse assessed as change in rectal body temperature at 20 mg/kg, ip dosed 15 mins after 0.1 mg/kg, sc WAY 100635 challenge measured after 60 mins by inducible hypothermia test. Type of assay: functional, organism-based.
Assay [20] relates to Mus musculus. The assay can be described thus: Effect on spontaneous locomotor activity in Swiss albino mouse assessed as number of light-beam crossings in actiometers pretreated for 30 mins at 20 mg/kg, ip measured during 6 mins post drug dose. Type of assay: functional. The settings on record: route intraperitoneal.
Assay [21] deals with Mus musculus. The assay can be described thus: Effect on hypothermia in Swiss albino mouse assessed as change in rectal body temperature at 5 mg/kg, ip after 120 mins by inducible hypothermia test. It counts as functional, organism-based. Also noted: dose 5 mg/kg.
For assay [22], the target named is T1, 5-hydroxytryptamine receptor 1A (Rattus norvegicus, UniProt P19327).
T1 sequence (P19327 whole entry): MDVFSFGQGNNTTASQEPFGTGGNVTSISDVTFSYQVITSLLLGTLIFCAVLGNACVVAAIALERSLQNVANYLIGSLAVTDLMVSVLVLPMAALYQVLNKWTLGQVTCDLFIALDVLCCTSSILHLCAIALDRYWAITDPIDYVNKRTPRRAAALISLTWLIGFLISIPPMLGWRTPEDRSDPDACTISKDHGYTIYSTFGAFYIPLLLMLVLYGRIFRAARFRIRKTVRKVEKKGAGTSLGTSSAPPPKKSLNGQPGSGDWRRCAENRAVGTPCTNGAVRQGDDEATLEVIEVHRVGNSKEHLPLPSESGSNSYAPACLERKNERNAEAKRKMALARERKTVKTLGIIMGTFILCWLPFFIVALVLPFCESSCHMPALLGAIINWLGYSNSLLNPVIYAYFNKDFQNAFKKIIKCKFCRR
The assay can be described thus: Displacement of [3H]8-OH-DPAT from 5-HT1A receptor in rat hippocampus. It counts as tissue-based. A general note: In a radioligand displacement assay an active substance lowers the binding of a labelled ligand.

The source made the active and inactive calls. The rule behind the calls is not given here.

As to `CCCN(CCC)C1CCc2cccc(O)c2C1` (configuration not stated) [8-OH-DPAT], the Activity with Mus musculus [1] is on record as 45%; in the assay on Mus musculus [2], 57%.

`COc1ccc2[nH]cc(C3CCN(CCCCn4c(=O)c(-c5ccccc5F)c5n(c4=O)CCCC5)CC3)c2c1`: the deltaT was -0.7 °C in the assay on Mus musculus [3]; -0.7 °C in the assay with Mus musculus [5]; -0.8 °C in the assay on Mus musculus [6]; -0.6 °C in the assay on Mus musculus [8]; -0.4 °C with Mus musculus [9]; -0.6 °C in the assay with Mus musculus [11]. The deltaT in the assay with Mus musculus [12] is -1 °C; in the assay on Mus musculus [13] it was -1.2 °C; in the assay on Mus musculus [14], -0.8 °C; in the assay with Mus musculus [15], -0.4 °C; in the assay on Mus musculus [17] it was -0.7 °C; with Mus musculus [18] it was -0.5 °C. Further, the deltaT was -0.4 °C with Mus musculus [19] and -0.3 °C with Mus musculus [21]. Further, the Activity is given as 26% in the assay on Mus musculus [4], 520 in the assay with Mus musculus [16] and 272 with Mus musculus [20]. In the assay on Mus musculus [7], the outcome was inactive. The figures for the inhibition constant Ki in assay [10] and in [22] were 184 nM and 45.6 nM, respectively.
